Measured values from patent publication US20020137929A1, “1 - (3-heterocyclylphenyl) isothiourea, -isourea, -guanidine and -amidine herbicidal agents” (Intellectual Property Department, BASF Aktiengesellschaft, priority 1998, published 2002).

Legend:
[1] = tested on: GLXMAW (Soybean, Williams); assay: Postemergence herbicidal evaluation; format: in vivo, Glycine max, (L.) Merr. cv Williams; conditions: postemergence
In short: (§1)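 Visual 0–9 rating versus control (stand, vigor, malformation, size, chlorosis, overall appearance), taken four to five weeks post-spray. Two-week-old seedlings received roughly 0.0156–0.500 kg/ha active in acetone/water (50/50) with 0.5% TWEEN 20 via nozzle at 40 psi.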

AMBEL (Ragweed, Common) [2] = assay: Preemergence herbicidal evaluation; format: in vivo, Ambrosia artemisifolia; conditions: rated 4-5 weeks after treatment
In short: (§2)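 Herbicidal effect scored visually, 0-9, at 4 to 5 weeks against a control; compound applied preemergence by aqueous acetone spray to seeded soil at about 0.0156 to 0.500 kg/ha.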

ABUTH (Velvetleaf) = assay: Preemergence herbicidal evaluation; format: in vivo, Abutilon theophrasti; conditions: rated 4-5 weeks after treatment
In short: as §2

AMBEL (Ragweed, Common) [3] = assay: Postemergence herbicidal evaluation; format: in vivo, Ambrosia artemisifolia; conditions: postemergence
In short: as §1

SETVI (Foxtail, Green) = assay: Postemergence herbicidal evaluation; format: in vivo, Setaria viridis; conditions: postemergence
In short: as §1

ORYSAT (Rice, Tebonnet) = assay: Postemergence herbicidal evaluation; format: in vivo, Oryza sativa, (L.) Tebonnet; conditions: postemergence
In short: as §1

[4] = tested on: CHEAL (Lambsquarters, Common); assay: Preemergence herbicidal evaluation; format: in vivo, Chenopodium album; conditions: rated 4-5 weeks after treatment
In short: as §2

[5] = tested on: ECHORC (Watergrass (Calif.)); assay: Preemergence weed control under flooded paddy conditions; format: in vivo, Echinochloa oryzoides; conditions: rated 3-4 weeks after treatment
In short: (§3)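 First, seeds or propagules go into the top 0.5 cm of silt loam; next, water is held 1.5 to 3 cm over the soil; then compound (50/50 acetone/water) is pipetted into it at about 0.0313 to 0.500 kg/ha; finally plants are rated visually 0-9 after three to four weeks.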

CYPSE (Flatsedge) = assay: as above; format: in vivo, Cyperus serotinus; conditions: rated 3-4 weeks after treatment
In short: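 Seeds or propagules sown in silt loam kept flooded 1.5-3 cm; compounds in 50/50 acetone/water pipetted into flood water at about 0.0313 to 0.500 kg/ha. Greenhouse; visual 0-9 rating versus untreated control 3-4 weeks after treatment.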

[6] = tested on: GLXMAW (Soybean, Williams); assay: Preemergence herbicidal evaluation; format: in vivo, Glycine max, (L.) Merr. cv Williams; conditions: rated 4-5 weeks after treatment
In short: as §2

CYPIR (Rice Flatsedge) = assay: Preemergence weed control under flooded paddy conditions; format: in vivo, Cyperus iria; conditions: rated 3-4 weeks after treatment
In short: as §3

ECHCG (Barnyardgrass) = assay: Postemergence herbicidal evaluation; format: in vivo, Echinochloa crus-galli; conditions: postemergence
In short: as §1

ZEAMX (Corn, Field) = assay: Preemergence herbicidal evaluation; format: in vivo, Zea mays; conditions: rated 4-5 weeks after treatment
In short: as §2

CCOC(=O)CN1C(=O)C(Cc2ccccc2OCC(=O)O)S/C1=N/c1cc(-n2c(=O)cc(C(F)(F)F)n(C)c2=O)c(F)cc1Cl (stereo not drawn) [Compound 113, 5-[o-(Carboxymethoxy)benzyl]-2-{{2-chloro-5-[3,6-dihydro-3-methyl-2,6-dioxo-4-(trifluoromethyl)-1(2H)-pyrimidinyl]-4-fluorophenyl}imino}-4-oxo-3-thiazolidineacetic acid, 3-ethyl ester]
7.0: Preemergence herbicidal rating CHEAL ([4]; rate 0.0313 kg/ha) | ECHORC herbicidal effect rating ([5]; 0.2500 kg/ha)
2.0: Preemergence herbicidal rating AMBEL (AMBEL (Ragweed, Common) [2]; rate 0.2500 kg/ha) | Herbicidal rating ORYSAT (ORYSAT (Rice, Tebonnet); rate 0.0158 kg/ha) | Herbicidal rating ORYSAT (ORYSAT (Rice, Tebonnet); rate 0.0315 kg/ha) | Preemergence herbicidal rating GLXMAW ([6]; rate 0.2500 kg/ha)
0.0: Preemergence herbicidal rating AMBEL (AMBEL (Ragweed, Common) [2]; rate 0.0156 kg/ha) | Preemergence herbicidal rating AMBEL (AMBEL (Ragweed, Common) [2]; rate 0.0313 kg/ha) | Preemergence herbicidal rating AMBEL (AMBEL (Ragweed, Common) [2]; rate 0.0625 kg/ha) | Preemergence herbicidal rating AMBEL (AMBEL (Ragweed, Common) [2]; rate 0.1250 kg/ha) | Preemergence herbicidal rating ABUTH (ABUTH (Velvetleaf); rate 0.0156 kg/ha) | Preemergence herbicidal rating CHEAL ([4]; rate 0.0625 kg/ha) | CYPSE herbicidal effect rating (CYPSE (Flatsedge); 0.0313 kg/ha) | CYPSE herbicidal effect rating (CYPSE (Flatsedge); 0.0625 kg/ha) | CYPSE herbicidal effect rating (CYPSE (Flatsedge); 0.1250 kg/ha) | CYPSE herbicidal effect rating (CYPSE (Flatsedge); 0.2500 kg/ha) | Preemergence herbicidal rating GLXMAW ([6]; rate 0.0156 kg/ha) | Preemergence herbicidal rating GLXMAW ([6]; rate 0.0625 kg/ha) | Preemergence herbicidal rating GLXMAW ([6]; rate 0.1250 kg/ha) | Herbicidal rating ECHCG (ECHCG (Barnyardgrass); rate 0.0158 kg/ha) | Preemergence herbicidal rating ZEAMX (ZEAMX (Corn, Field); rate 0.0156 kg/ha) | Preemergence herbicidal rating ZEAMX (ZEAMX (Corn, Field); rate 0.0625 kg/ha) | Preemergence herbicidal rating ZEAMX (ZEAMX (Corn, Field); rate 0.1250 kg/ha)
3.0: Herbicidal rating SETVI (SETVI (Foxtail, Green); rate 0.0158 kg/ha) | Herbicidal rating SETVI (SETVI (Foxtail, Green); rate 0.0630 kg/ha) | CYPIR herbicidal effect rating (CYPIR (Rice Flatsedge); 0.0313 kg/ha)
9.0: Preemergence herbicidal rating ABUTH (ABUTH (Velvetleaf); rate 0.1250 kg/ha) | Preemergence herbicidal rating ABUTH (ABUTH (Velvetleaf); rate 0.2500 kg/ha) | Herbicidal rating AMBEL (AMBEL (Ragweed, Common) [3]; rate 0.0315 kg/ha) | Herbicidal rating AMBEL (AMBEL (Ragweed, Common) [3]; rate 0.0630 kg/ha) | Preemergence herbicidal rating CHEAL ([4]; rate 0.1250 kg/ha) | Preemergence herbicidal rating CHEAL ([4]; rate 0.2500 kg/ha)
5.0: Herbicidal rating AMBEL (AMBEL (Ragweed, Common) [3]; rate 0.0158 kg/ha) | ECHORC herbicidal effect rating ([5]; 0.1250 kg/ha) | CYPIR herbicidal effect rating (CYPIR (Rice Flatsedge); 0.0625 kg/ha) | CYPIR herbicidal effect rating (CYPIR (Rice Flatsedge); 0.1250 kg/ha)
5.5: Herbicidal rating GLXMAW ([1]; rate 0.0315 kg/ha) | Herbicidal rating GLXMAW ([1]; rate 0.0630 kg/ha)
6.0: Preemergence herbicidal rating CHEAL ([4]; rate 0.0156 kg/ha) | CYPIR herbicidal effect rating (CYPIR (Rice Flatsedge); 0.2500 kg/ha)
2.5: Herbicidal rating ORYSAT (ORYSAT (Rice, Tebonnet); rate 0.0630 kg/ha)
1.0: Preemergence herbicidal rating ABUTH (ABUTH (Velvetleaf); rate 0.0313 kg/ha) | Preemergence herbicidal rating ABUTH (ABUTH (Velvetleaf); rate 0.0625 kg/ha) | Preemergence herbicidal rating GLXMAW ([6]; rate 0.0313 kg/ha) | Herbicidal rating ECHCG (ECHCG (Barnyardgrass); rate 0.0315 kg/ha) | Herbicidal rating ECHCG (ECHCG (Barnyardgrass); rate 0.0630 kg/ha) | Preemergence herbicidal rating ZEAMX (ZEAMX (Corn, Field); rate 0.0313 kg/ha) | Preemergence herbicidal rating ZEAMX (ZEAMX (Corn, Field); rate 0.2500 kg/ha)
4.5: Herbicidal rating GLXMAW ([1]; rate 0.0158 kg/ha)
4.0: ECHORC herbicidal effect rating ([5]; 0.0313 kg/ha) | ECHORC herbicidal effect rating ([5]; 0.0625 kg/ha)
